The target in experiment [1] is Active Mouse ERK2 (mERK2) (Mus musculus (Mouse), UniProt P63085). As to the kind of experiment: Active Mouse ERK2 (mERK2) Activity Assay (IMAP-FP). In kind it is biochemical. The protocol: Active Mouse ERK2 (mERK2) Activity Assay:
Activated ERK2 activity was determined in an IMAP-FP assay (Molecular Devices). […] Phosphorylation reactions were allowed to proceed for 45 minutes and were immediately quenched by the addition of 60 μL IMAP detection beads (1:1000 dilutions) in IMAP binding buffer (Molecular Devices) with 24 mM NaCl. Plates were read on EnVision reader after 60 minutes binding equilibration using Fluorescence Polarization protocol (Perkin Elmer).

Experiment [2] has as its target Active Human ERK2 (hERK2) (Homo sapiens (Human), UniProt P28482). Kind of experiment: Active Human ERK2 (hERK2) Activity Assay (IMAP-FP). In kind it is biochemical. Particulars: phosphorylated active hERK2, 30 μM ATP; average; read-out: ERK 2 Human average IC50. An outline of the steps:
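Reaction contains 0.5 nM activated hERK2, 900 nM unlabeled plus 80 nM labeled peptide and 30 μM ATP, run 60 min. Quenched with IMAP binding beads in buffer with 24 mM NaCl; fluorescence polarization read after 60 min binding equilibration.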

The mark [3] stands for this setting: phosphorylated active mERK2, 30 uM ATP, read-out: ERK 2 MAPK1 Mouse IC50.
[4] abbreviates: read-out: AERK2 IC50 (Active mouse ERK2 Activity Assay).

Where two headings read alike, the source gives them in different places.

Active Mouse ERK2 (mERK2), sequence (P63085 whole entry): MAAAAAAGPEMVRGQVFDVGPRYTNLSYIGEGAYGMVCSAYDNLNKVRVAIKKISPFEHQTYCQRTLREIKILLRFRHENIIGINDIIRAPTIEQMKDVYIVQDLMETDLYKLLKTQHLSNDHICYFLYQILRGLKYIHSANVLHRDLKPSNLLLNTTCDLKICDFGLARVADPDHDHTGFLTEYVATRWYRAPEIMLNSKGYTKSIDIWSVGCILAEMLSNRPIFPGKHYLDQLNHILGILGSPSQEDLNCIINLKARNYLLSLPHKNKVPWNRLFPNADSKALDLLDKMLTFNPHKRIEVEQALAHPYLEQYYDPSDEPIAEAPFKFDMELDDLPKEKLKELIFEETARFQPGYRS
Active Human ERK2 (hERK2), sequence (P28482 whole entry): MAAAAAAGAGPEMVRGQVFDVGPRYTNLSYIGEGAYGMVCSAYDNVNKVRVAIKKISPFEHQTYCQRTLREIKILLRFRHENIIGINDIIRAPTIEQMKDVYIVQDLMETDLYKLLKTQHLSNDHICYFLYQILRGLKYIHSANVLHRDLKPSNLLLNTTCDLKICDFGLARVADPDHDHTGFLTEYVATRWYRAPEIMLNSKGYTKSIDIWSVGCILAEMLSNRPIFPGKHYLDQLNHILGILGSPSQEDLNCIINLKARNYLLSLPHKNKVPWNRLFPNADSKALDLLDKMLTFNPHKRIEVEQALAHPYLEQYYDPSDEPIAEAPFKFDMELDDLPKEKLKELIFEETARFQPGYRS

For `C[C@@H](NC(=O)Nc1cc2[nH]ncc2cn1)c1ccc(F)cc1` [Example 24, 1-[(1R)-1-(4-fluorophenyl)ethyl]-3-(1H-pyrazolo[4,3-c]pyridin-6-yl)urea], the IC50 turned out to be 682 nM in experiment [1] (setting [3]) and 836 nM in experiment [2].
As to `Cc1cc(-c2n[nH]c3cc(NC(=O)N[C@H](C)c4ccccc4)ncc23)ccn1` [Example 6, 1-[3-(2-methylpyridin-4-yl)-1H-pyrazolo[4,3-c]pyridin-6-yl]-3-[(1R)-1-phenylethyl]urea], the figures for the IC50 in experiment [1] (setting [3]), in experiment [1] (setting [4]) and in experiment [2] were 0.152 nM, 0.1 to 1.2 nM and 0.204 nM, respectively.
For the compound `C[C@@H](NC(=O)Nc1cc2[nH]nc(C3CC3)c2cn1)c1ccccc1` [Example 25, 1-(3-cyclopropyl-1H-pyrazolo[4,3-c]pyridin-6-yl)-3-[(1R)-1-phenylethyl]urea], the IC50 was 0.1 to 1.2 nM in experiment [1] (setting [4]) and 1.96 nM in experiment [2].

These data come from US9023865B2, “Compounds that are ERK inhibitors” (Merck Sharp & Dohme Corp., priority 2011, dated 2015).
